Laboratory results from patent US9023826B2 (L'Oreal S.A., priority 2012, dated 2015).

Assay: Solubility in water, with or without hydrotropes, at room temperature
Format: physicochemical

stability of adenosine/hydrotropes solution in water on further dilution or concentration: stable
concentration of stable clear solution obtained (5% nicotinamide and 5% caffeine in water): 3 % (w/w)
Structure (SMILES): Nc1ncnc2c1ncn2[C@@H]1O[C@H](CO)[C@@H](O)[C@H]1O [Adenosine]
